Legend:
MERS-CoV 3CLpro = MERS-CoV 3CLpro (Middle East respiratory syndrome-related coronavirus, UniProt K9N7C7); test: biochemical
SARS-CoV 3CLpro = SARS-CoV 3CLpro (Severe acute respiratory syndrome coronavirus, UniProt P0C6X7); test: biochemical
HCoV-229E 3CLpro = HCoV-229E 3CLpro (Human coronavirus 229E, UniProt P0C6X1); test: HCoV-229E 3CLpro inhibition assay (FRET); format: biochemical
SARS-CoV-2 3CLpro = SARS-CoV-2 3CLpro (Severe acute respiratory syndrome coronavirus 2, UniProt P0DTD1); test: biochemical

Chain of HCoV-229E 3CLpro (P0C6X1 2966-3267): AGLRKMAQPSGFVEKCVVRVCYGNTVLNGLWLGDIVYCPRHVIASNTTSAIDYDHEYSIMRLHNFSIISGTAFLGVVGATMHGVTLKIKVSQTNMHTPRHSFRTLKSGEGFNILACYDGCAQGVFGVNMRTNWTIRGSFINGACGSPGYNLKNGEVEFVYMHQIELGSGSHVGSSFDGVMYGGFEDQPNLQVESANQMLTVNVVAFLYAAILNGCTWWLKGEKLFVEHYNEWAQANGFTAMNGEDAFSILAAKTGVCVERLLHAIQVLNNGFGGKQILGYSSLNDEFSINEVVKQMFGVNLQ
Chain of MERS-CoV 3CLpro (K9N7C7 3248-3553): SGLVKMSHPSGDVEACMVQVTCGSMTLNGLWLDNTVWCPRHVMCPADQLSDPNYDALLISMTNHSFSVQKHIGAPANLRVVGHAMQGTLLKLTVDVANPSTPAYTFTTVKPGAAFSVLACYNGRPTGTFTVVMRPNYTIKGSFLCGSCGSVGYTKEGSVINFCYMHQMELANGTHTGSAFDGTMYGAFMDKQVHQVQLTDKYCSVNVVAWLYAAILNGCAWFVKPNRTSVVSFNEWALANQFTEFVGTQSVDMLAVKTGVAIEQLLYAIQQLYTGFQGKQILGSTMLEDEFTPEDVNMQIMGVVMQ

Row | Compound | IC50 (MERS-CoV 3CLpro) [nM] | IC50 (SARS-CoV 3CLpro) [nM] | IC50 (HCoV-229E 3CLpro) [nM] | IC50 (SARS-CoV-2 3CLpro) [nM]
1 | CC[C@H](C)[C@H](NC(=O)C(C)C)C(=O)N1C[C@@H]2CCC[C@@H]2[C@H]1C(=O)NN(C[C@@H]1CCNC1=O)C(=O)[C@H](F)Cl [Example 47, N-[(1S,2S)-1-[(3S,3aS,6aR)-3-[[[(2R)-2-chloro-2-fluoro-acetyl]-[[(3S)-2-oxopyrrolidin-3-yl]methyl]amino]carbamoyl]-3,3a,4,5,6,6a-hexahydro-1H-cyclopenta[c]pyrrole-2-carbonyl]-2-methyl-butyl]-2-methyl-propanamide] | 76 | 12 | 26 | 7
2 | CC[C@H](C)[C@H](NC(=O)C(F)(F)F)C(=O)N1C[C@@H]2CCC[C@@H]2[C@H]1C(=O)NN(C[C@@H]1CCNC1=O)C(=O)[C@H](F)Cl [Example 48, N-[(1S,2S)-1-[(3S,3aS,6aR)-3-[[[(2R)-2-chloro-2-fluoro-acetyl]-[[(3S)-2-oxopyrrolidin-3-yl]methyl]amino]carbamoyl]-3,3a,4,5,6,6a-hexahydro-1H-cyclopenta[c]pyrrole-2-carbonyl]-2-methyl-butyl]-2,2,2-trifluoro-acetamide] | 56 | 12 | 22 | 12
3 | CC[C@H](C)[C@H](NC(=O)C(Cl)Cl)C(=O)N1C[C@@H]2CCC[C@@H]2[C@H]1C(=O)NN(C[C@@H]1CCNC1=O)C(=O)[C@H](F)Cl [Example 49, N-[(1S,2S)-1-[(3S,3aS,6aR)-3-[[[(2R)-2-chloro-2-fluoro-acetyl]-[[(3S)-2-oxopyrrolidin-3-yl]methyl]amino]carbamoyl]-3,3a,4,5,6,6a-hexahydro-1H-cyclopenta[c]pyrrole-2-carbonyl]-2-methyl-butyl]-2,2-dichloro-acetamide] | 96 | 13 | 33 | 7
4 | CC[C@H](C)[C@H](NC(=O)C(F)F)C(=O)N1C[C@H]2[C@@H]([C@H]1C(=O)NN(C[C@@H]1CCNC1=O)C(=O)[C@H](F)Cl)C2(C)C [Example 51, N-[(1S,2S)-1-[(1R,2S,5S)-2-[[[(2R)-2-chloro-2-fluoro-acetyl]-[[(3S)-2-oxopyrrolidin-3-yl]methyl]amino]carbamoyl]-6,6-dimethyl-3-azabicyclo[3.1.0]hexane-3-carbonyl]-2-methyl-butyl]-2,2-difluoro-acetamide] | 59 | 10 | 21 | 7
5 | CC[C@H](C)[C@H](NC(=O)C(C)(C)C)C(=O)N1C[C@H]2[C@@H]([C@H]1C(=O)NN(C[C@@H]1CCNC1=O)C(=O)[C@H](F)Cl)C2(C)C [Example 52, N-[(1S,2S)-1-[(1R,2S,5S)-2-[[[(2R)-2-chloro-2-fluoro-acetyl]-[[(3S)-2-oxopyrrolidin-3-yl]methyl]amino]carbamoyl]-6,6-dimethyl-3-azabicyclo[3.1.0]hexane-3-carbonyl]-2-methyl-butyl]-2,2-dimethyl-propanamide] | 57 | 15 | 22 | 10
6 | CC[C@H](C)[C@H](NC(=O)C(C)C)C(=O)N1C[C@H]2[C@@H]([C@H]1C(=O)NN(C[C@@H]1CCNC1=O)C(=O)[C@H](F)Cl)C2(C)C [Example 54, N-[(1S,2S)-1-[(1R,2S,5S)-2-[[[(2R)-2-chloro-2-fluoro-acetyl]-[[(3S)-2-oxopyrrolidin-3-yl]methyl]amino]carbamoyl]-6,6-dimethyl-3-azabicyclo[3.1.0]hexane-3-carbonyl]-2-methyl-butyl]-2-methyl-propanamide] | 56 | 12 | 24 | 9
7 | CC[C@H](C)[C@H](NC(=O)C(C)(F)F)C(=O)N1C[C@H]2[C@@H]([C@H]1C(=O)NN(C[C@@H]1CCNC1=O)C(=O)[C@H](F)Cl)C2(C)C [Example 55, N-[(1S,2S)-1-[(1R,2S,5S)-2-[[[(2R)-2-chloro-2-fluoro-acetyl]-[[(3S)-2-oxopyrrolidin-3-yl]methyl]amino]carbamoyl]-6,6-dimethyl-3-azabicyclo[3.1.0]hexane-3-carbonyl]-2-methyl-butyl]-2,2-difluoro-propanamide] | 56 | 14 | 21 | 8
8 | CC[C@H](C)[C@H](NC(=O)C1CC1)C(=O)N1C[C@H]2[C@@H]([C@H]1C(=O)NN(C[C@@H]1CCNC1=O)C(=O)[C@H](F)Cl)C2(C)C [Example 57, N-[(1S,2S)-1-[(1R,2S,5S)-2-[[[(2R)-2-chloro-2-fluoro-acetyl]-[[(3S)-2-oxopyrrolidin-3-yl]methyl]amino]carbamoyl]-6,6-dimethyl-3-azabicyclo[3.1.0]hexane-3-carbonyl]-2-methyl-butyl]cyclopropanecarboxamide] | 62 | 13 | 20 | 11
9 | CC[C@H](C)[C@H](NC(=O)C1CC(F)(F)C1)C(=O)N1C[C@H]2[C@@H]([C@H]1C(=O)NN(C[C@@H]1CCNC1=O)C(=O)[C@H](F)Cl)C2(C)C [Example 58, N-[(1S,2S)-1-[(1R,2S,5S)-2-[[[(2R)-2-chloro-2-fluoro-acetyl]-[[(3S)-2-oxopyrrolidin-3-yl]methyl]amino]carbamoyl]-6,6-dimethyl-3-azabicyclo[3.1.0]hexane-3-carbonyl]-2-methyl-butyl]-3,3-difluoro-cyclobutanecarboxamide] | 73 | 15 | 26 | 11
10 | CC[C@H](C)[C@H](NC(=O)C1(F)CC1)C(=O)N1C[C@H]2[C@@H]([C@H]1C(=O)NN(C[C@@H]1CCNC1=O)C(=O)[C@H](F)Cl)C2(C)C [Example 59, N-[(1S,2S)-1-[(1R,2S,5S)-2-[[[(2R)-2-chloro-2-fluoro-acetyl]-[[(3S)-2-oxopyrrolidin-3-yl]methyl]amino]carbamoyl]-6,6-dimethyl-3-azabicyclo[3.1.0]hexane-3-carbonyl]-2-methyl-butyl]-1-fluoro-cyclopropanecarboxamide] | 62 | 17 | 21 | 7
11 | CC[C@H](C)[C@H](NC(=O)C1(C)CC1)C(=O)N1C[C@H]2[C@@H]([C@H]1C(=O)NN(C[C@@H]1CCNC1=O)C(=O)[C@H](F)Cl)C2(C)C [Example 60, N-[(1S,2S)-1-[(1R,2S,5S)-2-[[[(2R)-2-chloro-2-fluoro-acetyl]-[[(3S)-2-oxopyrrolidin-3-yl]methyl]amino]carbamoyl]-6,6-dimethyl-3-azabicyclo[3.1.0]hexane-3-carbonyl]-2-methyl-butyl]-1-methyl-cyclopropanecarboxamide] | 47 | 9 | 19 | 10
12 | CC[C@H](C)[C@H](NC(=O)C(Cl)Cl)C(=O)N1C[C@H]2[C@@H]([C@H]1C(=O)NN(C[C@@H]1CCNC1=O)C(=O)[C@H](F)Cl)C2(C)C [Example 61, 2,2-dichloro-N-[(1S,2S)-1-[(1R,2S,5S)-2-[[[(2R)-2-chloro-2-fluoro-acetyl]-[[(3S)-2-oxopyrrolidin-3-yl]methyl]amino]carbamoyl]-6,6-dimethyl-3-azabicyclo[3.1.0]hexane-3-carbonyl]-2-methyl-butyl]acetamide] | 121 | 11 | 30 | 8
13 | CC[C@H](C)[C@H](NC(=O)C(F)(F)C(F)(F)F)C(=O)N1C[C@H]2[C@@H]([C@H]1C(=O)NN(C[C@@H]1CCNC1=O)C(=O)[C@H](F)Cl)C2(C)C [Example 62, N-[(1S,2S)-1-[(1R,2S,5S)-2-[[[(2R)-2-chloro-2-fluoro-acetyl]-[[(3S)-2-oxopyrrolidin-3-yl]methyl]amino]carbamoyl]-6,6-dimethyl-3-azabicyclo[3.1.0]hexane-3-carbonyl]-2-methyl-butyl]-2,2,3,3,3-pentafluoro-propanamide] | 43 | 10 | 17 | 8
14 | CC[C@H](C)[C@H](NC(=O)C(F)(F)F)C(=O)N1C[C@H]2[C@@H]([C@H]1C(=O)NN(C[C@@H]1CCNC1=O)C(=O)[C@H](F)Cl)C2(C)C [Example 63, N-[(1S,2S)-1-[(1R,2S,5S)-2-[[[(2R)-2-chloro-2-fluoro-acetyl]-[[(3S)-2-oxopyrrolidin-3-yl]methyl]amino]carbamoyl]-6,6-dimethyl-3-azabicyclo[3.1.0]hexane-3-carbonyl]-2-methyl-butyl]-2,2,2-trifluoro-acetamide] | 60 | 11 | 18 | 9
15 | CC[C@@H](C)[C@H](NC(=O)C(F)(F)F)C(=O)N1C[C@H]2[C@@H]([C@H]1C(=O)NN(C[C@@H]1CCNC1=O)C(=O)[C@H](F)Cl)C2(C)C [Example 64, N-[(1S,2R)-1-[(1R,2S,5S)-2-[[[(2R)-2-chloro-2-fluoro-acetyl]-[[(3S)-2-oxopyrrolidin-3-yl]methyl]amino]carbamoyl]-6,6-dimethyl-3-azabicyclo[3.1.0]hexane-3-carbonyl]-2-methyl-butyl]-2,2,2-trifluoro-acetamide] | 71 | 12 | 20 | 10
16 | CC(C)(C)C[C@H](NC(=O)C(F)(F)F)C(=O)N1C[C@H]2[C@@H]([C@H]1C(=O)NN(C[C@@H]1CCNC1=O)C(=O)[C@H](F)Cl)C2(C)C [Example 66, N-[(1S)-1-[(1R,2S,5S)-2-[[[(2R)-2-chloro-2-fluoro-acetyl]-[[(3S)-2-oxopyrrolidin-3-yl]methyl]amino]carbamoyl]-6,6-dimethyl-3-azabicyclo[3.1.0]hexane-3-carbonyl]-3,3-dimethyl-butyl]-2,2,2-trifluoro-acetamide] | 141 | 22 | 35 | 10

Reference: patent US20250059171A1 (Hoffmann-La Roche Inc., priority 2021, published 2025)
